These results are taken from patent publication US20250145637A1, “SULFONAMIDE DERIVATIVE, PREPARATION METHOD THEREFOR AND MEDICAL USE THEREOF” (Jiangsu Hengrui Pharmaceuticals Co. Ltd., priority 2021, published 2025).

As usually defined, the IC50 is the concentration at which inhibition is half-maximal. As a reminder, the half-life is the time needed for the level to fall by half in the phase considered.

For one data set, the system named is ERα expression. The conditions noted are these: ER+ breast cancer cells highly expressing KAT6A; cited from earlier work.
The next data set relates to ER+ breast cancer. Conditions: both in vitro and in vivo; cited from earlier work.
The test system of a further data set is ZR-75-1. Kind of data set: ZR-75-1 proliferation assay (CellTiter-Glo, day 14). It is filed as cell-based. Conditions: Homo sapiens, 336 h, CTG assay day 14. The source says:
Test Example 4: ZR-75-1 Proliferation Assay
I. Reagents and Instruments
• 1. ZR-75-1 (ATCC CRL1500) • 2. 1640 medium (Gibco, 22400-089) • 3. 0.25% trypsin-EDTA (1×) (Gibco, 25200-072) • 4. Penicillin-streptomycin (Gibco, 15140-122) • 5. DPBS (1×) (Gibco, 14190-144) • 6. FBS (Gibco, 10091148) • 7. Assay plate, 96-well, black with clear bottom (Corning, 3603) • 8. 96-well non-treated round-bottom plate (JET BIOFIL, TCP-002-096) • 9. CellTiter-Glo buffer (Promega, G756B) • 10. CellTiter-Glo substrate (Promega, G755B) • 11. Automatic cell counter (Countstar, IC1000) • 12. Thermostatic incubator (Thermo, 1160) • 13. PHERAstar FS (BMG labtech, PHERAstar FS)
a. The state of cells was observed under a microscope to make sure that the cell confluence was about 90%.
b. The cell supernatant was discarded. The cells were rinsed with DPBS once, and the DPBS was removed. The cells were digested with a proper amount of trypsin and left to stand at 37° C. for 5 min.
c. The digestion was stopped with an equal volume of 1640 medium containing 10% FBS, and the cell suspension was collected and centrifuged at 300 g for 3 min. The cells were suspended in a proper amount of fresh medium.
d. The resulting cell suspension was collected and cell counting was performed.
e. The cell suspension was diluted to 5×10^4/mL, 50 μL/well with 1640 medium containing 10% FBS. Each well contained 2500 ZR-75-1 cells.
f. The cell culture plates were incubated overnight in a 37° C., 5% carbon dioxide incubator.
2. Compound Addition (Day 1)
a. Each compound was serially diluted in DMSO to 9 concentration points (initial concentration of 100 μM, 3-fold dilution; the highest concentration of each compound may be adjusted depending on its IC50). For example, in a 96-well non-treated round-bottom plate, 3 μL of compound was serially diluted in 6 μL of DMSO.
b. Each concentration point of each compound was diluted 500-fold in the corresponding volume of 1640 medium.
c. 50 μL of diluted compound solution was added to the cell supernatant (50 μL/well) in each cell plate.
d. After the addition, the cell plates were incubated in a 37° C., 5% carbon dioxide incubator.
3. The Cells were Re-Digested and Plated, and the Compounds were Added (Day 7).
a. Six days after the addition, the compound-containing medium was discarded. Then the cells were rinsed with DPBS (150 μL/well), and the DPBS was immediately pipetted off.
b. The cells were digested with 50 μL of trypsin and left to stand at 37° C. for 3 min, and then the digestion was stopped with 1640 medium containing 10% FBS (150 μL/well).
c. The cells were well mixed using a pipette and re-plated at a ratio of 1:8; that is, 25 μL of cell suspension was pipetted into a new 96-well plate (25 μL of 1640 medium containing 10% FBS had been added to the new plate in advance).
d. Compound solution preparation and addition (50 μL/well) were performed according to steps a to c in 2.
e. After the addition, the cell plates were incubated in a 37° C., 5% carbon dioxide incubator.
a. CellTiter-Glo buffer and lyophilized CellTiter-Glo substrate were equilibrated to room temperature before use and were well mixed to prepare a 100-mL CellTiter-Glo reagent (or a prepared CellTiter-Glo reagent was removed from a −20° C. freezer and equilibrated to room temperature).
b. The plates to be tested were removed from the incubator and equilibrated to room temperature, and the CellTiter-Glo reagent was added at 50 μL/well.
c. The plates were shaken for 2 min so that the cells were completely lysed.
d. After the plates were left to stand at room temperature for 28 min and signals were stable, the plates were tested on PHERAstar FS.
For orientation: ATP-based viability assays read luminescence as a measure of living cells.

A further data set has as its target human KAT6A (Homo sapiens (Human), UniProt Q92794). Kind of data set: KAT6 enzyme activity assay (AlphaScreen method), KAT6A. It is filed as biochemical. The conditions noted are these: inhibition of the enzyme human KAT6A. The source says: Test Example 1: KAT6 Enzyme Activity Assay (AlphaScreen Method)
I. Reagents and instrument • 1. KAT6A (customized by Chempartner) • 2. Ovalbumin (Sigma-Aldrich, A5378-5G) • 3. 2 M Tris-HCl solution, pH 7.8, sterile (Sangon, B548140-0500) • 4. 5 M NaCl solution (Sangon, B548121-0100) • 5. EDTA (0.5 M), pH 8.0, RNase-free (Thermofisher, AM9260G) • 6. Tween-20 (Sangon, A100777-0500) • 7. DTT, 1 M (Invitrogen, P2325) • 8. Acetyl coenzyme A (Ac-CoA, CAYMAN, Cat. No. 16160) • 9. Recombinant histone H3.1 biotinylated (human) (Active Motif 31696) • 10. 384-well plate, light gray (Perkin Elmer, Cat. No. 6005350) • 11. Anacardic acid (MCE, Cat. No. HY—N2020) • 12. AlphaScreen streptavidin donor beads, 5 mg (PerkinElmer, 6760002) • 13. AlphaScreen protein A acceptor beads, 5 mg (PerkinElmer, 6760137M) • 14. Acetylated-lysine antibody #9441 (CST 9441S) • 15. PHERA star microplate reader (BMG labtech) • II. Experimental method
a. 1× assay buffer: 100 mM Tris-HCl, pH 7.8; 15 mM NaCl; 1 mM EDTA; 0.01% tween-20; 1 mM DTT; 0.01% m/v ovalbumin.
b. KAT enzyme solution: 1.25 nM (final concentration), prepared in 1× assay buffer.
c. Mixed substrate of Ac-CoA and H3: a mixed substrate of 1000 nM (final concentration) Ac-CoA and 55 nM (final concentration) H3, prepared in 1× assay buffer.
d. Compounds: initial concentration of 100 μM, 3-fold dilution, 10 gradient concentrations. All compound concentrations were diluted 83-fold with 1× assay buffer for later use.
e. Assay reagent: 8 ng/μL (final concentration) AlphaScreen protein A acceptor beads, 8 ng/μL AlphaScreen streptavidin donor beads, 1:1500 diluted acetylated-lysine antibody, and 100 μM anacardic acid; prepared in 1× assay buffer.
2. Experimental Procedure
a. The prepared enzyme solution was added to a 384-well plate at 3 μL/well, and 3 μL of 1× assay buffer was added to each well in columns 23 and 24 (Min).
b. 3 μL of compound solution was added to each well, and 3 μL of buffer was added to each Min well; 3 μL of DMSO solution was added to each well in columns 1 and 2 (Max) as controls. The plate was centrifuged, shaken for 2 min, and incubated at room temperature for 15 min.
c. The mixed substrate of Ac-CoA and H3 was added at 6 μL/well, and the plate was centrifuged, shaken for 2 min, and incubated at room temperature for 20 min.
d. The assay reagent was added at 6 μL/well, and the plate was centrifuged, shaken for 2 min, and incubated in the dark at room temperature for 120 min.
e. Plate reading was performed on the microplate reader, and AlphaScreen counts were recorded.
f. Plotting was performed using the Graphpad software, and the IC50 values of the compounds were calculated.
On the technique in general: In Alpha technology, singlet oxygen from a donor bead excites a nearby acceptor bead.

Data set [1] can be described thus: Pharmacokinetic evaluation in SD rats. It is filed as in vivo. Conditions: both sexes, rat, plasma, po, i.g., 2.0 mg/kg. As for the experimental part:
Test Example 5: Pharmacokinetic Evaluation
SD rats were used as test animals. After intragastric (i.g.) administration of the compounds of the present disclosure to SD rats, the plasma concentrations at different time points were measured by the LC/MS/MS method. The pharmacokinetic behavior of the compounds of the present disclosure in SD rats was studied, and their pharmacokinetic profiles were evaluated.
Compound 2, compound 7, compound 21, and compound 23.
16 SD rats, of which half were male and half female, were evenly divided into 4 groups. The rats were provided by Vital River Laboratory Animal Technology Co., Ltd. The rats were fasted overnight and intragastrically administered the compounds.
2.3. Compound Solution Preparation
A certain amount of test compound was weighed out and dissolved in 5% DMSO+5% tween 80+90% normal saline to prepare a 0.2 mg/mL colorless clear solution.
The dose administered was 2.0 mg/kg, and the volume was 10.0 mL/kg.
0.1 mL blood samples were collected from the orbit before the administration and 0.25 h, 0.5 h, 1.0 h, 2.0 h, 4.0 h, 6.0 h, 8.0 h, 11.0 h and 24.0 h post-dose. The blood samples were placed into EDTA-K2 anticoagulation tubes and centrifuged at 10,000 rpm for 1 min (4° C.), and plasma was separated within 1 h and stored at −20° C. before analysis. The process from the blood collection to the centrifugation was performed in an ice bath. Access to food was given 2 h post-dose.
Measurement of plasma concentrations in SD rats after compounds were administered in different concentrations: 25 μL samples of the SD rat plasma collected at various time points post-dose were taken, and to each of the samples was added 25 μL of camptothecin (an internal standard for compound 2, 100 ng/mL) or 50 μL of tolbutamide (an internal standard for compound 7, 100 ng/mL) or 50 μL of verapamil (an internal standard for compounds 21 and 23, 100 ng/mL). Protein was precipitated with 200 μL of acetonitrile, and after 5 min of vortexing, the mixtures were centrifuged at 3700 rpm for 10 min. 120 µL of supernatant was taken and vortexed with 30 μL of water for 5 min, and a 5 μL sample was taken for LC/MS/MS analysis.

human KAT6A, sequence (Q92794 whole entry): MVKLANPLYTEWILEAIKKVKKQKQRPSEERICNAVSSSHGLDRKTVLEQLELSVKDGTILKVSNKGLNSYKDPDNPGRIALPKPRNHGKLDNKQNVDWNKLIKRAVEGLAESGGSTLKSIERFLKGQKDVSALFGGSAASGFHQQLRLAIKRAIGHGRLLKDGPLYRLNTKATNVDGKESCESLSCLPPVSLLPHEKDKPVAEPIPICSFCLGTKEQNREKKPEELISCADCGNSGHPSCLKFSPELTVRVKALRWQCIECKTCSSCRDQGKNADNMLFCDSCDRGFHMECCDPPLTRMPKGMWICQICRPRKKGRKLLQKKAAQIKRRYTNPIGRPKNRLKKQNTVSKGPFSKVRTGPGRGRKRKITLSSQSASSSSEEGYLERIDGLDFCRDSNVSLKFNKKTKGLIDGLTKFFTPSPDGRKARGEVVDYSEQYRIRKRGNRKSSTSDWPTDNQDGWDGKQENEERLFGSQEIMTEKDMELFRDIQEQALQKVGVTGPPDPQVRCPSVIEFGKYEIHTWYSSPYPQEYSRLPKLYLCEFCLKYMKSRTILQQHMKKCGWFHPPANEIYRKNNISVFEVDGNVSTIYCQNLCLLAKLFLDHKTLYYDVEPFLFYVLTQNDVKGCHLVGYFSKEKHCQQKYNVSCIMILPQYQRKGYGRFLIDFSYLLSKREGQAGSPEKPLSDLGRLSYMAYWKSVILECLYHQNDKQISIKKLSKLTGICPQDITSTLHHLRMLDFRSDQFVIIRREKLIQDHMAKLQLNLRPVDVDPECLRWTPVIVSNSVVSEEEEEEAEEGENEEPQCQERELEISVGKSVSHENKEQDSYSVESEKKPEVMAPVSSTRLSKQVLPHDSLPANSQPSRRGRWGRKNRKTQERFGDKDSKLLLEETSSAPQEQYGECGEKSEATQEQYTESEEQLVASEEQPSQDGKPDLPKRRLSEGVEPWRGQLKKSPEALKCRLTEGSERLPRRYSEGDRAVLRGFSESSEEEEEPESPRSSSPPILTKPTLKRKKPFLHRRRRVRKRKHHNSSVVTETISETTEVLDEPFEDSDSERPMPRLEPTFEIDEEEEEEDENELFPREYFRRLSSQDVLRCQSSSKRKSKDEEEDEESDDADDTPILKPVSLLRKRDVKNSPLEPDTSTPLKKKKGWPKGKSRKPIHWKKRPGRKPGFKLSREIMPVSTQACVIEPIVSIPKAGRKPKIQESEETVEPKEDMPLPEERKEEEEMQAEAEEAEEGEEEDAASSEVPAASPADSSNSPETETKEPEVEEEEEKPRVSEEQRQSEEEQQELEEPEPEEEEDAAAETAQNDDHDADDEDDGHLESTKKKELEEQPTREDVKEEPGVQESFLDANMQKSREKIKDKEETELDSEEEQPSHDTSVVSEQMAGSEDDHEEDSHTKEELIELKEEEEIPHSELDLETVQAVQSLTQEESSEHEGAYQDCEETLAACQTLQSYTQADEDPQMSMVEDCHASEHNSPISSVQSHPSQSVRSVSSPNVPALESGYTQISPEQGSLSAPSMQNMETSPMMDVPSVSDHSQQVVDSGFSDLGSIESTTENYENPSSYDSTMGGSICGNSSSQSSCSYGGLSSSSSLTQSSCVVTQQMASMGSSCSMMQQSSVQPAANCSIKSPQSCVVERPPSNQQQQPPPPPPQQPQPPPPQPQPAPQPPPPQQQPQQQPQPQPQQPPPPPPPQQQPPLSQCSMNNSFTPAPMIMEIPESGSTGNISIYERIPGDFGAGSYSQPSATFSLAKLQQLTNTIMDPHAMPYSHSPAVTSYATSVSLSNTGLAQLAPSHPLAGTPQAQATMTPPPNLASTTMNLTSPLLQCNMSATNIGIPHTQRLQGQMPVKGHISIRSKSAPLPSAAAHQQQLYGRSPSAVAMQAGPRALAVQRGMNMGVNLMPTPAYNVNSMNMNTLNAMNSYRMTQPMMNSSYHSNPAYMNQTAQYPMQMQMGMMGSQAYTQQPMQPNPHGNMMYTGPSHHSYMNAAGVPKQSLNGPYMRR

Take `COc1cccc(OC)c1S(=O)(=O)Nc1noc2cc(Cn3cccn3)cc(OC)c12` [CTx-648]: the ERα expression entry with ERα expression is “can down-regulate ERα expression”. Also, the “anti-tumor activity in ER+ breast cancer” value in the data set on ER+ breast cancer is reported as “shows anti-tumor activity”.

For the molecule `COc1cc2c(cc1S(=O)(=O)Nc1noc3cc(Cn4cccn4)c4c(c13)OCCC4)CCC2` [Compound 6, N-(5-((1H-pyrazol-1-yl)methyl)-3,4-dihydro-2H-chromeno[8,7-d]isoxazol-9-yl)-6-methoxy-2,3-dihydro-1H-indene-5-sulfonamide], the values for the IC50 in the data set on ZR-75-1 (ZR-75-1 proliferation) and against human KAT6A were 0.6 nM and 0.4 nM, respectively. The Emax in the data set with ZR-75-1 (inhibition of ZR-75-1 proliferation, read-out: Maximum inhibition rate/Imax %) was 95.4%.

For the molecule `Cc1ccc(S(=O)(=O)Nc2noc3cc(Cn4cccn4)c4c(c23)OCC4)c(OCC(F)(F)F)c1` [Compound 21, N-(4-((1H-pyrazol-1-yl)methyl)-2,3-dihydrobenzofuro[7,6-d]isoxazol-8-yl)-4-methyl-2-(2,2,2-trifluoroethoxy)benzenesulfonamide], in data set [1] (read-out: Apparent distribution volume Vz/F), the Vd/F was determined as 0.496 L/kg. Further, the AUC(0-t) in data set [1] (read-out: Area under curve AUC0-t) worked out at 43.7 µg·h/mL. For the same molecule, the CL/F in data set [1] (read-out: Clearance rate CL/F) came to 0.0473 L/h/kg. For the same molecule, the half-life in data set [1] (read-out: Half-life T½ (converted)) is 9.58 h. Further, in data set [1] (read-out: Plasma concentration Cmax), the Cmax is 4.31 µg/mL. On human KAT6A, this molecule came in with an IC50 of 4.6 nM.
